Assay results published in paper PMC11094307, “Marine-derived EGFR inhibitors: novel compounds targeting breast cancer growth and drug resistance” (Frontiers in Pharmacology, 2024).
Read-outs that look alike come from different tables or passages of the source.

Columns and labels:
MCF-7 cells = test: MTT assay, MCF-7 growth inhibition; type: cell-based, human; settings: Homo sapiens, read-out: EC50, MCF-7 cell viability
Experimental: Both mediums were enriched with 10% fetal bovine serum and 1% penicillin/streptomycin.
Cells in the exponential growth phase were seeded into 96-well plates and allowed to adhere overnight. […] After 24 h, 20 µL of Methyl-thiazolyldiphenyl-tetrazolium bromide (MTT, 5 mg/mL, Thermo Fisher Scientific) was added to each well and incubated for a minimum of 4 h. Following the incubation, the medium containing the compounds and MTT was removed from each well, and 200 µL of dimethyl sulfoxide (DMSO) was added.
(§1) All experiments were repeated at least three times, and the data are presented as mean ± standard deviation (SD). The statistical analyses were performed using Origin. EC50 or IC50 values were obtained by fitting the data to a four-parameter Hill model of the graph of log dose against percentage cell viability or inhibition from at least three sets of experiments. Difference between two groups were analyzed by Student’s t test (two-sided) and significance was set at p < 0.05. The specific details about statistical methods are introduced in respective figure legends.

EGFR L858R = biological target: T1, EGFR L858R (Homo sapiens, UniProt P00533, L858R); test: Kinase inhibition assay (ADP-Glo, Promega); type: biochemical
T1 construct: purchased Promega Corporation, USA
Experimental: (§2) The extracellular ligand-binding domain of EGFR, tagged with His, and the intracellular tyrosine kinase (TK) domain of EGFR, tagged with GST, were acquired from Sinobiological, China. […] Cell lines including MCF-7, A549, A431, H1299, HL-60, and MCF-10A were obtained from the China Infrastructure Cell Line Resources.
(§3) The experiments were conducted in accordance with the manufacturer’s guidelines (Promega). The procedure began with a kinase reaction, where 5 μL of 1× kinase buffer was utilized, and the mixture was incubated at room temperature for 60 min. This step was followed by the addition of 5 μL of ADP-Glo™ reagent to terminate the kinase reaction and to deplete any remaining ATP, with a subsequent incubation period of 40 min at room temperature. Next, 10 μL of kinase detection reagent was added to convert ADP back into ATP, and luciferase along with luciferin was introduced to facilitate ATP detection. This mixture was then incubated at room temperature for an additional 30 min. Detection was carried out using a BioTek Synergy4 instrument, and data analysis, including curve fitting and presentation, was performed using GraphPad Prism version 5.0.
as §1

EGFR L858R/T790M = biological target: T2, EGFR L858R/T790M (Homo sapiens, UniProt P00533, L858R/T790M); test: Kinase inhibition assay (ADP-Glo, Promega); type: biochemical
T2 construct: purchased Promega Corporation, USA
T2 sequence (P00533 25-1210 T790M/L858R): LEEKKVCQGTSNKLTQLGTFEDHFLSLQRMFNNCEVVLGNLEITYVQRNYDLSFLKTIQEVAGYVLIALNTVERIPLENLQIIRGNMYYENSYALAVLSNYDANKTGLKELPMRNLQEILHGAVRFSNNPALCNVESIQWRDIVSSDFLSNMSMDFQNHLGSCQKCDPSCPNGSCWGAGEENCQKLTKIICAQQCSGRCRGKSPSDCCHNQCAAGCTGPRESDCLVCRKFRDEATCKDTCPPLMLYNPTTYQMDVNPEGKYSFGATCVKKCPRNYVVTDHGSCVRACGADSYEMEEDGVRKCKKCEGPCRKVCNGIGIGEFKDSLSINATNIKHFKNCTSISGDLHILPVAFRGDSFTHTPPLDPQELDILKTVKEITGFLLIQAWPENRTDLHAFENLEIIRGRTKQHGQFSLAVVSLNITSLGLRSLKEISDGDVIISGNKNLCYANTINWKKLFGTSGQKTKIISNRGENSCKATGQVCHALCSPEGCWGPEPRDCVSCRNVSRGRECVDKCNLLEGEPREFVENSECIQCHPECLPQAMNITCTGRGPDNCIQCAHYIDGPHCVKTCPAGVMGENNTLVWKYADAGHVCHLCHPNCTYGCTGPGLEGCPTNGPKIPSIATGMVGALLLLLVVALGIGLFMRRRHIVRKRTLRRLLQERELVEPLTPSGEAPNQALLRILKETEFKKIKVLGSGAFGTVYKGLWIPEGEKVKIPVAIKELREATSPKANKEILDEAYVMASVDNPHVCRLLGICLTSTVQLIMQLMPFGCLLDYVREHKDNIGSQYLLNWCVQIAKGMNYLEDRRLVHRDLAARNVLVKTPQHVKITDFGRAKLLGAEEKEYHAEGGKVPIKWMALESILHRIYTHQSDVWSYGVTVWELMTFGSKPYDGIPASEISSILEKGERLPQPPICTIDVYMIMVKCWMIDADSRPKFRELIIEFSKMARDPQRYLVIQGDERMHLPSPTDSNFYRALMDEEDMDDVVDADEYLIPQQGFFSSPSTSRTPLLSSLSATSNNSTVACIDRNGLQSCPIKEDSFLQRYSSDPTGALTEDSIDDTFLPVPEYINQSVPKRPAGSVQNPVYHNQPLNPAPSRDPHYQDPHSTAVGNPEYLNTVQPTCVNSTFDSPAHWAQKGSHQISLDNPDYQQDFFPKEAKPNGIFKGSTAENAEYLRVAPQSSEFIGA
Experimental: as §2, §3, §1

EGFR T790M = biological target: T3, EGFR T790M (Homo sapiens, UniProt P00533, T790M); test: Kinase inhibition assay (ADP-Glo, Promega); type: biochemical
T3 construct: purchased Promega Corporation, USA
T3 sequence (P00533 25-1210 T790M): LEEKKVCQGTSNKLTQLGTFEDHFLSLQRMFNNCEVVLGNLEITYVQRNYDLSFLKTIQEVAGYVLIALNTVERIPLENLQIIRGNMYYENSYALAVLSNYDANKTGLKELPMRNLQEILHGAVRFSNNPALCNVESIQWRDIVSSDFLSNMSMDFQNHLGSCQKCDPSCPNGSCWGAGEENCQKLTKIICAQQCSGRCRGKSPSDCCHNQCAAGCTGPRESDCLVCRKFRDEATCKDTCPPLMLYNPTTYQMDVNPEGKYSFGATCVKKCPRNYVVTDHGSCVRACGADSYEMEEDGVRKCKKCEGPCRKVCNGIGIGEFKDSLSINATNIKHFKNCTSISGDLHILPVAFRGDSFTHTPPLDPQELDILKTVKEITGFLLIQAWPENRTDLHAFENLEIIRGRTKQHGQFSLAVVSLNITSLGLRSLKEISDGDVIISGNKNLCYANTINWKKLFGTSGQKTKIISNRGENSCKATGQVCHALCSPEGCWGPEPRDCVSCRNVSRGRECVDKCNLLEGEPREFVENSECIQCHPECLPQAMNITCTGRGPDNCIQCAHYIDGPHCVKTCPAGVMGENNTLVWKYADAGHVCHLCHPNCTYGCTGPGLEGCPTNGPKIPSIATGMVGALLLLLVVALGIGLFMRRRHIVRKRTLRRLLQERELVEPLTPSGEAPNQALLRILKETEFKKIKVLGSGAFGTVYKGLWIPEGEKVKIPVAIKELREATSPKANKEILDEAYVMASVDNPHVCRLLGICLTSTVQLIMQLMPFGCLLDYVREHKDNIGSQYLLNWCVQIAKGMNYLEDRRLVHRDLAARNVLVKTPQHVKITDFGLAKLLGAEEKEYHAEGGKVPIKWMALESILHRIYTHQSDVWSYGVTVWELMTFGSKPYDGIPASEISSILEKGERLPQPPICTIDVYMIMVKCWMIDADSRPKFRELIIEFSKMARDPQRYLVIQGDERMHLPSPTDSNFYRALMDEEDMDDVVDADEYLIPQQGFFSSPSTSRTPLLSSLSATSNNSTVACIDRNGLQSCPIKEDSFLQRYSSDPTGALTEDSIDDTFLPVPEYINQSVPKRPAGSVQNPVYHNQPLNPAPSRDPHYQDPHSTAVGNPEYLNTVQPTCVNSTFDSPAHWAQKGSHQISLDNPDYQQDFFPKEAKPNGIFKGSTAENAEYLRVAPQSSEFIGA
Experimental: as §2, §3, §1

WT EGFR = biological target: T4, WT EGFR (Homo sapiens, UniProt P00533); test: Kinase inhibition assay (ADP-Glo, Promega); type: biochemical; settings: in vitro kinase assay
T4 construct: purchased Promega Corporation, USA
T4 sequence (P00533 25-1210): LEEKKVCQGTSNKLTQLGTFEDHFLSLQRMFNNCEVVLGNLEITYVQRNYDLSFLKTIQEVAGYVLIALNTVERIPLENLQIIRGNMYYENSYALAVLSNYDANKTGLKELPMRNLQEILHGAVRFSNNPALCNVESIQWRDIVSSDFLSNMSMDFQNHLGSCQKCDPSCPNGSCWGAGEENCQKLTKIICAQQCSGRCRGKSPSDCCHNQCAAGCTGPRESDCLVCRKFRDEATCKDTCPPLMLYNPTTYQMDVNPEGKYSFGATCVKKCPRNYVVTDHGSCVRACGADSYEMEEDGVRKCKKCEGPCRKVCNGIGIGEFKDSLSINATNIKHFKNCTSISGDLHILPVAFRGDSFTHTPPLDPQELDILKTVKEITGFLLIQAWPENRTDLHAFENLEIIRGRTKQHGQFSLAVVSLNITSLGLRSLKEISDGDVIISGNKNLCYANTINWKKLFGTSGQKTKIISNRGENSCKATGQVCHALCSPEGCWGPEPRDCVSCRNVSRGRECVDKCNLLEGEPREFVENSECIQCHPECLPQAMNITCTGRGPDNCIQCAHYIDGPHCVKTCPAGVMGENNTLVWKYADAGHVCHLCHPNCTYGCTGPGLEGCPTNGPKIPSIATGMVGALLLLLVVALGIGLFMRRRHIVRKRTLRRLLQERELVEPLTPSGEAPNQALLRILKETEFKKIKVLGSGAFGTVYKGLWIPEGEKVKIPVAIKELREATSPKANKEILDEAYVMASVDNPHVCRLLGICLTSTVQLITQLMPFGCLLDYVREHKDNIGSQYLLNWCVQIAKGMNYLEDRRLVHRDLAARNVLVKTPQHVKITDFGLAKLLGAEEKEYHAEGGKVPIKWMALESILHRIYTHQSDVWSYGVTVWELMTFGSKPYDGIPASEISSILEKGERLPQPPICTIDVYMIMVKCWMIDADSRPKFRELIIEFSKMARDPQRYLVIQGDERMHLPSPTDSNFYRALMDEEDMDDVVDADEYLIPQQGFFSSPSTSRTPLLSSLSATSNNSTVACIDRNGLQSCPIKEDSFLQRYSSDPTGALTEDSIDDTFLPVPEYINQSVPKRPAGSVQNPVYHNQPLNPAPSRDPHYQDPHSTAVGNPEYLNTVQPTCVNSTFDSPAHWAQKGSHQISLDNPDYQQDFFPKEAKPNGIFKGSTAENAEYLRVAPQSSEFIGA
Experimental: as §2, §3, §1

[1] = biological target: T5, EGFR extracellular ligand binding domain (Homo sapiens, UniProt P00533); test: SPR binding (Biacore 8K)
T5 construct: His; purchased Sinobiological, China
T5 sequence (P00533 25-645 limits assumed): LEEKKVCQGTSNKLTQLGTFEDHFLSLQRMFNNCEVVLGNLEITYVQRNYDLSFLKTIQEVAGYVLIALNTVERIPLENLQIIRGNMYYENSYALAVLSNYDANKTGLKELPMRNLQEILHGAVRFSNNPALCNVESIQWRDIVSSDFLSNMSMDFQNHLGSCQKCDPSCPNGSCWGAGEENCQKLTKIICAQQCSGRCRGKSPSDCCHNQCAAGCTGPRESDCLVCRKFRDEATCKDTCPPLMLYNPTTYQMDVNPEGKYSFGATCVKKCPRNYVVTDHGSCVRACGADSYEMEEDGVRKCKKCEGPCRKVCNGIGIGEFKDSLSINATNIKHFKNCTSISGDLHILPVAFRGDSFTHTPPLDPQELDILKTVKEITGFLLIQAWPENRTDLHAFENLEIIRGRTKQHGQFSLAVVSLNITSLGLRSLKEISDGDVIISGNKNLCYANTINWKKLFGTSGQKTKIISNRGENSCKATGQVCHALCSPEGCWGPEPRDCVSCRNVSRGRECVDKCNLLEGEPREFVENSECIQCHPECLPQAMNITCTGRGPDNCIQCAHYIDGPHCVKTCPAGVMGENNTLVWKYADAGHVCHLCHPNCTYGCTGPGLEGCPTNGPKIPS
Description: (§4) The extracellular ligand-binding domain of EGFR, tagged with His, and the intracellular tyrosine kinase (TK) domain of EGFR, tagged with GST, were acquired from Sinobiological, China. Kinase assay systems for both wild-type EGFR and its mutants—T790M, L858R, and the dual L858R/T790M—were procured from Promega Corporation, USA. Cell lines including MCF-7, A549, A431, H1299, HL-60, and MCF-10A were obtained from the China Infrastructure Cell Line Resources.
(§5) The binding affinities of compounds towards EGFR extracellular ligand binding domain and EGFR intracellular kinase domain were assayed using the SPR-based Biacore 8K instrument (Cytiva). Considering the purchased EGFR was fused with GST tag, GST alone was also immobilized on the chip to do the binding measurement. All the proteins were respectively immobilized on a CM5 sensor chip by using standard amine-coupling at 25°C with running buffer HEPES-P (20 mM HEPES buffer, […], 0.05% surfactant P20, pH 7.4). A reference channel was only activated and blocked to eliminate compound unspecific binding to the surface of the chip. The immobilization level of EGFR extracellular ligand binding domain, EGFR intracellular kinase domain and GST were all about 10,000 RU. […] Extra wash with 50% DMSO was added to remove the last remaining sample in the pipeline.

[2] = biological target: T6, EGFR intracellular kinase domain (Homo sapiens, UniProt P00533); test: SPR ATP competition experiments (1 mM ATP); settings: in the presence of ATP, Figure S6
T6 sequence (P00533 712-979 limits assumed): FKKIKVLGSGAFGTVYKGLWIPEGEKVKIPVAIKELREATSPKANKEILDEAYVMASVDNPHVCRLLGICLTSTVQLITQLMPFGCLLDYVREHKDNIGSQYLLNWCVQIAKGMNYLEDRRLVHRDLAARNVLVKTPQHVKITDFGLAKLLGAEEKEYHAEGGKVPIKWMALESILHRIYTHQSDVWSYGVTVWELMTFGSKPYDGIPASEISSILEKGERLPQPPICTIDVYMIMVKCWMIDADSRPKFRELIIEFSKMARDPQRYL

[3] = biological target: T6, EGFR intracellular kinase domain; test: SPR binding (Biacore 8K); parameters: the intracellular tyrosine kinase (TK) domain of EGFR, tagged with GST; purchased Sinobiological, China; settings: without ATP
Description: as §4, §5

[4] = biological target: T5, EGFR extracellular ligand binding domain; test: SPR EGF competition experiments; settings: for kon: read-out: ka
Description: The protocol fixed the pre-flank contact time, analyte contact time, and post-flank contact time at 60 s, 60 s, and 120 s, respectively.

Row | Compound | EC50 (MCF-7 cells; MCF7, 24 h) [µM] | IC50 (EGFR L858R) [µM] | IC50 (EGFR L858R/T790M) [µM] | IC50 (EGFR T790M) [µM] | IC50 (WT EGFR; IC50 against WT EGFR) [µM] | Kd [1] [µM] | binding to kinase domain of EGFR [2] | Kd [3] [µM] | other results
1 | CC[C@@H](C)[C@H]1C=C[C@H]2[C@H](OC(=O)C/C(C)=C\C(=O)O)[C@H](O)C[C@@H](C)[C@@H]2[C@@]1(C)C(=O)CCO [Tandyukisin C] | 8.7 ± 1 | 0.003 ± 0.0002 | 0.156 ± 0.004 | 0.0297 ± 0.0001 | 0.0126 ± 0.0001 | 55.1 | hardly bind | 6.56 | 
2 | CC[C@@H](C)[C@H]1C=C[C@H]2[C@H](OC(=O)/C=C(\C)CC(=O)OC)[C@H](O)C[C@@H](C)[C@@H]2[C@@]1(C)C(=O)CCO [Tandyukisin B] |  |  |  |  |  | 30 | hardly bind | 7.02 | EC50 (MCF-7 cells; MCF7, MTT, 24 h): 9.2 ± 1.2 µM; IC50 (EGFR T790M; in vitro kinase assay, read-out: IC50 against EGFR T790M): 0.0373 ± 0.0001 µM; IC50 (WT EGFR; read-out: IC50 against WT EGFR): 0.0147 ± 0.0011 µM
3 | CC[C@@H](C)[C@H]1C=C[C@H]2[C@H](O)[C@H](OC(=O)/C=C(\C)CC(=O)O)C[C@@H](C)[C@@H]2[C@@]1(C)C(=O)CCO [Trichoharzin] | 4.8 ± 0.4 | 0.0028 ± 0.0006 | 0.0855 ± 0.0277 | 0.032 ± 0.0005 | 0.0119 ± 0.0001 | 7.98 |  | 6.34 | kon ([1]; Figure 4C-D, read-out: ka, EGFR ligand binding domain): 1810 M⁻¹ s⁻¹; folds weaker than binding alone ([4]; EGF 2.5 nM): 3.3 fold; Kd ([4]; EGF 2.5 nM, Figure 4H, read-out: KD): 26.2 µM; kon ([4]; EGF 2.5 nM, Figure 4H): 1030 M⁻¹ s⁻¹; folds weaker than binding alone ([4]; EGF 10 nM): 5.1 fold; Kd ([4]; EGF 10 nM, Figure 4I, read-out: KD): 40.6 µM; kon ([4]; EGF 10 nM, Figure 4I): 552 M⁻¹ s⁻¹; folds weaker than binding alone ([4]; EGF 20 nM): 7.0 fold; Kd ([4]; EGF 20 nM, Figure 4J, read-out: KD): 56.2 µM; kon ([4]; EGF 20 nM, Figure 4J): 374 M⁻¹ s⁻¹; inhibition of EGF-EGFR interaction ([4]; SPR, concentration-dependent, 125-500 μM): significantly inhibiting; Kd ([4]; in the presence of EGF 2.5 nM, read-out: KD for EGFR extracellular ligand binding domain): 26.2 µM; Kd ([4]; in the presence of EGF 10 nM, read-out: KD for EGFR extracellular ligand binding domain): 40.6 µM; Kd ([4]; in the presence of EGF 20 nM, read-out: KD for EGFR extracellular ligand binding domain): 56.2 µM; kon ([3]; Figure 4A-B, read-out: ka, EGFR kinase domain): 8040 M⁻¹ s⁻¹
